US10781211B2, “Spirocycle compounds and methods of making and using same” (Lundbeck La Jolla Research Center, Inc., priority 2016, dated 2020)

Columns and labels:
Type in all cases: in vivo
Conditions in all cases: 5 mg/kg oral gavage
MAGL = MAGL (Mus musculus (Mouse), UniProt O35678); experiment: Mouse brain proteomes from inhibitor treated mice (oral gavage, sacrifice 4 h after administration, ABPP analysis)
Procedure, shortened: (§1)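 Oral dosing of C57Bl/6J wild-type mice at 5 mg/kg, brain collection 4 h afterwards, then ABPP of brain proteomes to give % target inhibition.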

FAAH = FAAH (Mus musculus (Mouse), UniProt O08914); experiment: Mouse brain proteomes from inhibitor treated mice (oral gavage, sacrifice 4 h after administration, ABPP analysis), FAAH
Procedure, shortened: as §1

ABHD6 = ABHD6 (Mus musculus (Mouse), UniProt Q8R2Y0); experiment: Mouse brain proteomes from inhibitor treated mice (oral gavage, sacrifice 4 h after administration, ABPP analysis), ABHD6
Procedure, shortened: as §1

Sequence of FAAH (O08914 whole entry): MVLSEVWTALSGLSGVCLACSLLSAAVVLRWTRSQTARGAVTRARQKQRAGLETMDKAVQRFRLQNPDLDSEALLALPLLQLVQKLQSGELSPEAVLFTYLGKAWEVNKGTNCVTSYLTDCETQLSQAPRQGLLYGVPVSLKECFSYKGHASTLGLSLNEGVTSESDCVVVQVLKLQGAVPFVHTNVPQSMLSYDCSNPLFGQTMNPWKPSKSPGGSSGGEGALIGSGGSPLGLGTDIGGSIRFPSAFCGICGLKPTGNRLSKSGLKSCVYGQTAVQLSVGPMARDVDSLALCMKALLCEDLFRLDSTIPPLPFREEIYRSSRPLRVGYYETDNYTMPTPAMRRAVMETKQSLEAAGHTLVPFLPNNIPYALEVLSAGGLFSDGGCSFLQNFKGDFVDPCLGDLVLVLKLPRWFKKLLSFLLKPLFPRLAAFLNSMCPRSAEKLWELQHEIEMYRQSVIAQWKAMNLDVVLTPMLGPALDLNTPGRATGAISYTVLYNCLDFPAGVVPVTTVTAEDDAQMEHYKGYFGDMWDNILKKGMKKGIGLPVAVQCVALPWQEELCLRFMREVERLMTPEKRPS
Sequence of MAGL (O35678 whole entry): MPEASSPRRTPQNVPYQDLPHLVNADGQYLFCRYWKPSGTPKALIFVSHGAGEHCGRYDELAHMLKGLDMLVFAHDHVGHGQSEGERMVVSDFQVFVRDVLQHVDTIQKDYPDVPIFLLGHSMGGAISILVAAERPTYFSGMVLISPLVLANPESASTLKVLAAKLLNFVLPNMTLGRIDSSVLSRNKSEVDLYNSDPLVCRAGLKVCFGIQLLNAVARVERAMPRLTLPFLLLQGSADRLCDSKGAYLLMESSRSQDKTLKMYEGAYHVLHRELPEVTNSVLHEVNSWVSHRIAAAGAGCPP
Sequence of ABHD6 (Q8R2Y0 whole entry): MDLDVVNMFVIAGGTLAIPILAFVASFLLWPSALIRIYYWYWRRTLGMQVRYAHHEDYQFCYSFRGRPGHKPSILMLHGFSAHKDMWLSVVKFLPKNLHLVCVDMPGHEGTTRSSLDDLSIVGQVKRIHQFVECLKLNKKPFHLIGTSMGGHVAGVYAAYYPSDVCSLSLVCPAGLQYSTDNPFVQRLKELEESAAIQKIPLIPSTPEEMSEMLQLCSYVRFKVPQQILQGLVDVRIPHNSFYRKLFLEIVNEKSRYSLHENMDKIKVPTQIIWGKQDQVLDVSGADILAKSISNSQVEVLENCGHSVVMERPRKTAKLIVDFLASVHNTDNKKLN

| MAGL % Inh 5 mg/kg (mouse) (MAGL) | FAAH % Inh 5 mg/kg (mouse) (FAAH) | ABHD6 % Inh 5 mg/kg (mouse) (ABHD6) | Compound |
| --- | --- | --- | --- |
| ### (### is ≥ 75%) | # (# is < 25%) | # (# is < 25%) | O=C(OC(C(F)(F)F)C(F)(F)F)N1CCC2(CCCN2Cc2ccc(N3CCOCC3)c(C(F)(F)F)c2)CC1 [Example 129, 1,1,1,3,3,3-Hexafluoropropan-2-yl 1-(4-morpholino-3-(trifluoromethyl)benzyl)-1,8-diazaspiro[4.5]decane-8-carboxylate] |
| ### (### is ≥ 75%) | # (# is < 25%) | # (# is < 25%) | COc1cc(Cl)ccc1CN1CCCC12CCN(C(=O)OC(C(F)(F)F)C(F)(F)F)CC2 [Example 9, 1,1,1,3,3,3-Hexafluoropropan-2-yl 1-(4-chloro-2-methoxybenzyl)-1,8-diazaspiro[4.5]decane-8-carboxylate] |
| ### (### is ≥ 75%) | # (# is < 25%) | # (# is < 25%) | O=C(OC(C(F)(F)F)C(F)(F)F)N1CCC2(CCCN2Cc2cc(OC(F)(F)F)cc(N3CCOCC3)c2)CC1 [Example 37, 1,1,1,3,3,3-Hexafluoropropan-2-yl 1-(3-morpholino-5-(trifluoromethoxy)benzyl)-1,8-diazaspiro[4.5]decane-8-carboxylate] |
| ### (### is ≥ 75%) | # (# is < 25%) | # (# is < 25%) | O=C(O)C1CCN(c2cc(Cl)ccc2CN2CCCC23CCN(C(=O)OC(C(F)(F)F)C(F)(F)F)CC3)CC1 [Example 120, 1-(5-Chloro-2-((8-(((1,1,1,3,3,3-hexafluoropropan-2-yl)oxy)carbonyl)-1,8-diazaspiro[4.5]decan-1-yl)methyl)phenyl)piperidine-4-carboxylic acid] |
| ### (### is ≥ 75%) | # (# is < 25%) | # (# is < 25%) | CCOc1cc(CN2CCCC23CCN(C(=O)OC(C(F)(F)F)C(F)(F)F)CC3)ccc1Cl [Example 32, 1,1,1,3,3,3-Hexafluoropropan-2-yl 1-(4-chloro-3-ethoxybenzyl)-1,8-diazaspiro[4.5]decane-8-carboxylate] |
| # (# is < 25%) | # (# is < 25%) | # (# is < 25%) | CS(=O)(=O)NC1CCN(c2cc(Cl)ccc2CN2CCCC23CCN(C(=O)OC(C(F)(F)F)C(F)(F)F)CC3)CC1 [Example 105, 1,1,1,3,3,3-Hexafluoropropan-2-yl 1-(4-chloro-2-(4-(methylsulfonamido)piperidin-1-yl)benzyl)-1,8-diazaspiro[4.5]decane-8-carboxylate] |
| ### (### is ≥ 75%) | # (# is < 25%) | # (# is < 25%) | O=C(OC(C(F)(F)F)C(F)(F)F)N1CCC2(CCCN2Cc2ccc(Cl)cc2N2CCOCC2)CC1 [Example 77, 1,1,1,3,3,3-Hexafluoropropan-2-yl 1-(4-chloro-2-morpholinobenzyl)-1,8-diazaspiro[4.5]decane-8-carboxylate] |
| ### (### is ≥ 75%) | # (# is < 25%) | # (# is < 25%) | O=C(OC(C(F)(F)F)C(F)(F)F)N1CCC2(CCCN2Cc2ccc(Cl)cc2N2CCC(F)(F)CC2)CC1 [Example 101, 1,1,1,3,3,3-Hexafluoropropan-2-yl 1-(4-chloro-2-(4,4-difluoropiperidin-1-yl)benzyl)-1,8-diazaspiro[4.5]decane-8-carboxylate] |
| ### (### is ≥ 75%) | # (# is < 25%) | # (# is < 25%) | O=C(O)C1CCN(Cc2cc(Cl)cc(CN3CCCC34CCN(C(=O)OC(C(F)(F)F)C(F)(F)F)CC4)c2)C1 (stereo not drawn) [Example 272] |
| ### (### is ≥ 75%) | # (# is < 25%) | # (# is < 25%) | Cc1ccc(CN2CCCC23CCN(C(=O)OC(C(F)(F)F)C(F)(F)F)CC3)cc1Cl [Example 125, 1,1,1,3,3,3-Hexafluoropropan-2-yl 1-(3-chloro-4-methylbenzyl)-1,8-diazaspiro[4.5]decane-8-carboxylate] |
| # (# is < 25%) | # (# is < 25%) | # (# is < 25%) | CS(=O)(=O)N1CCN(c2cc(C(F)(F)F)ccc2CN2CCCC23CCN(C(=O)OC(C(F)(F)F)C(F)(F)F)CC3)CC1 [Example 89, 1,1,1,3,3,3-Hexafluoropropan-2-yl 1-(2-(4-(methylsulfonyl)piperazin-1-yl)-4-(trifluoromethyl)benzyl)-1,8-diazaspiro[4.5]decane-8-carboxylate] |
| ### (### is ≥ 75%) | # (# is < 25%) | # (# is < 25%) | CCc1cc(CN2CCCC23CCN(C(=O)OC(C(F)(F)F)C(F)(F)F)CC3)ccc1F [Example 150, 1,1,1,3,3,3-Hexafluoropropan-2-yl 1-(3-ethyl-4-fluorobenzyl)-1,8-diazaspiro[4.5]decane-8-carboxylate] |
| ### (### is ≥ 75%) | # (# is < 25%) | # (# is < 25%) | O=C(OC(C(F)(F)F)C(F)(F)F)N1CCC2(CCCN2Cc2ccc(C(F)(F)F)cc2N2CCC(F)CC2)CC1 [Example 91, 1,1,1,3,3,3-Hexafluoropropan-2-yl 1-(2-(4-fluoropiperidin-1-yl)-4-(trifluoromethyl)benzyl)-1,8-diazaspiro[4.5]decane-8-carboxylate] |
| ### (### is ≥ 75%) | # (# is < 25%) | # (# is < 25%) | CCOc1ccc(CN2CCCC23CCN(C(=O)OC(C(F)(F)F)C(F)(F)F)CC3)cc1 [Example 4, 1,1,1,3,3,3-Hexafluoropropan-2-yl 1-(4-ethoxybenzyl)-1,8-diazaspiro[4.5]decane-8-carboxylate] |
| ### (### is ≥ 75%) | # (# is < 25%) | # (# is < 25%) | O=C(OC(C(F)(F)F)C(F)(F)F)N1CCC2(CCCN2Cc2cc(N3CCC3)cc(C(F)(F)F)c2)CC1 [Example 47, 1,1,1,3,3,3-Hexafluoropropan-2-yl 1-(3-(azetidin-1-yl)-5-(trifluoromethyl)benzyl)-1,8-diazaspiro[4.5]decane-8-carboxylate] |
| ### (### is ≥ 75%) | # (# is < 25%) | # (# is < 25%) | Cc1cc(CN2CCCC23CCN(C(=O)OC(C(F)(F)F)C(F)(F)F)CC3)ccc1C(F)(F)F [Example 177, 1,1,1,3,3,3-Hexafluoropropan-2-yl 1-(3-methyl-4-(trifluoromethyl)benzyl)-1,8-diazaspiro[4.5]decane-8-carboxylate] |
| ### (### is ≥ 75%) | # (# is < 25%) | # (# is < 25%) | O=C(OC(C(F)(F)F)C(F)(F)F)N1CCC2(CCN(Cc3ccc(C(F)(F)F)cc3N3CCOCC3)C2)CC1 [Example 22, 1,1,1,3,3,3-Hexafluoropropan-2-yl 2-(2-morpholino-4-(trifluoromethyl)benzyl)-2,8-diazaspiro[4.5]decane-8-carboxylate] |
| ### (### is ≥ 75%) | # (# is < 25%) | # (# is < 25%) | O=C(OC(C(F)(F)F)C(F)(F)F)N1CCC2(CCCN2Cc2ccc(C(F)(F)F)cc2N2CCOCC2)CC1 [Example 67, 1,1,1,3,3,3-Hexafluoropropan-2-yl 1-(2-morpholino-4-(trifluoromethyl)benzyl)-1,8-diazaspiro[4.5]decane-8-carboxylate] |
| ### (### is ≥ 75%) | # (# is < 25%) | # (# is < 25%) | O=C(OC(C(F)(F)F)C(F)(F)F)N1CCC2(CCCN2Cc2cc(N3CCCC3)cc(C(F)(F)F)c2)CC1 [Example 36, 1,1,1,3,3,3-Hexafluoropropan-2-yl 1-(3-(pyrrolidin-1-yl)-5-(trifluoromethyl)benzyl)-1,8-diazaspiro[4.5]decane-8-carboxylate] |
| ### (### is ≥ 75%) | ### (### is ≥ 75%) | # (# is < 25%) | COc1cccc(CN2CCCC23CCN(C(=O)OC(C(F)(F)F)C(F)(F)F)CC3)c1Cl [Example 7, 1,1,1,3,3,3-Hexafluoropropan-2-yl 1-(2-chloro-3-methoxybenzyl)-1,8-diazaspiro[4.5]decane-8-carboxylate] |
| # (# is < 25%) | # (# is < 25%) | # (# is < 25%) | CC1(C)CC2(CCN(C(=O)OC(C(F)(F)F)C(F)(F)F)CC2)CN1Cc1ccc(C(F)(F)F)cc1N1CCC2(CCOCC2)C1 [Example 52, 1,1,1,3,3,3-Hexafluoropropan-2-yl 2-(2-(8-oxa-2-azaspiro[4.5]decan-2-yl)-4-(trifluoromethyl)benzyl)-3,3-dimethyl-2,8-diazaspiro[4.5]decane-8-carboxylate] |
| ### (### is ≥ 75%) | # (# is < 25%) | # (# is < 25%) | O=C(O)[C@@H]1CCCN(c2cc(C(F)(F)F)ccc2CN2CCCC23CCN(C(=O)OC(C(F)(F)F)C(F)(F)F)CC3)C1 [Example 214] |
| ### (### is ≥ 75%) | # (# is < 25%) | # (# is < 25%) | Cc1c(CN2CCCC23CCN(C(=O)OC(C(F)(F)F)C(F)(F)F)CC3)cccc1N1CCCC1 [Example 85, 1,1,1,3,3,3-Hexafluoropropan-2-yl 1-(2-methyl-3-(pyrrolidin-1-yl)benzyl)-1,8-diazaspiro[4.5]decane-8-carboxylate] |
